Measurements: ChEMBL document CHEMBL1134865, “Antimalarial compounds from Parinari capensis” (Bioorg Med Chem Lett, 2002)
In brackets after ≈: the same amount, converted by molar mass.

What was measured:
[1] = Compound was evaluated for toxicity on Human kidney epithelial (Graham cells) at a dose of 100 ug/mL; assay type: cell-based
[2] = Compound was evaluated for its antimalarial activity in vitro on Plasmodium falciparum; assay type: functional
[3] = Compound was evaluated for toxicity on Human kidney epithelial (Graham cells) at a dose of 100 ug/mL; Not toxic; assay type: cell-based

Row | Compound | IC50 [2] [µg/mL] | IC50 [1] [µg/mL] | IC50 [3]
1 | CCN(CC)CCCC(C)Nc1ccnc2cc(Cl)ccc12 (stereo not given) [CHLOROQUINE] | 0.04 (≈ 0.125 µM) | – | Non-toxic
2 | C=C[C@H]1CN2CC[C@H]1C[C@H]2[C@H](O)c1ccnc2ccc(OC)cc12 [QUININE] | 0.17 (≈ 0.524 µM) | – | Non-toxic

Further lines, with some results ahead:

Row | IC50 [2] [µg/mL] | Compound | IC50 [1] [µg/mL] | IC50 [3]
3 | 0.54 (≈ 1.63 µM) | C=C1C(=O)[C@@]23CCC4[C@@]5(C)CCC[C@@]4(OC5=O)[C@@]2(C)CC[C@]1(O)C3 (stereo not given in full) | 1.73 (≈ 5.24 µM) | –
4 | 0.67 (≈ 1.95 µM) | C=C1C(=O)[C@@]23CC[C@@H]4[C@@]5(C)CCC[C@@]4(OC5=O)[C@@]2(C)CC[C@]1(OC)C3 | 1.13 (≈ 3.28 µM) | –
5 | 1.57 (≈ 4.99 µM) | C=C1C(=O)[C@@]23CCC4[C@@]5(C)CCC[C@@]4(OC5=O)[C@@]2(C)CC[C@@H]1C3 (stereo not given in full) | 3.01 (≈ 9.57 µM) | –
